`CCCCCCCCCCCCCCc1ccc(N(CC(=O)O)CC(=O)O)cc1` gave a melting point of 160 to 165 °C. `O=C1Nc2cccc(F)c2C12COc1cc3c(cc12)OCCO3` (stereo not given) showed a melting point of 282 to 285 °C. Compound `O=C1CNC2=C(CCc3cc(F)ccc32)C1` has a melting point of 223 to 224 °C. Compound `COc1cc2c(cc1OC)C(=O)C(=O)N(CCCN(C)CCCSc1cc(Br)c(N)c(Br)c1)CC2` has a melting point of 118 to 125 °C. In the case of `CN1CCC(Oc2ccccc2C(N)=O)C1` (stereo not given), the melting point is reported as 116 to 118 °C. With `CCOC(=O)c1cnn(Cc2ccccc2)c1NC(=O)Nc1ccccc1` the melting point was 178 to 179 °C. `O=C(NCc1ccccc1Cl)c1cccnc1Oc1ccc(F)cc1F` gave a melting point of 122 to 124 °C. With `Cc1c(F)c(F)cc2c(=O)c(C(=O)O)cn(C3CC3)c12` the melting point was 240 to 243 °C. In the case of `ON=Cc1ccc2c(c1)COC2c1ccc(F)cc1` (stereo not given), the melting point is reported as 158 to 159 °C. Work on `CCCCc1nc2sc(C(=O)O)cc2n1Cc1ccc(-c2ccccc2C(=O)O)cc1` yielded a melting point of 264 °C. Work on `CC(=O)OC1CCC2C3CCC4CC(=O)CC(C)C4(C)C3CCC12C` (stereo not given) yielded a melting point of 179 to 180 °C. Compound `CCc1cc(Cl)c(-n2ncc(C#N)c2N)c(Cl)c1` has a melting point of 189 to 190 °C. `CS(=O)(=O)c1ccc(-c2cccn2-c2ccc3c(c2)OCO3)cc1` gave a melting point of 172 to 175 °C. `CCCCCCCCCCCCCCCC(=O)CC(=O)OC` showed a melting point of 40 to 41 °C. `CN1CCN(c2nc(NCc3ccco3)nc(Nc3ccc(O)cc3)n2)CC1` showed a melting point of 116 to 118 °C. Work on `CCCCCCCCCCOc1ccccc1C(N)=O` yielded a melting point of 58 to 59 °C. `CC1(C)CCC(C)(C)c2cc(C(C)(O)COc3ccc(C(=O)O)c(O)c3)ccc21` (stereo not given) showed a melting point of 170 to 171 °C. `COC(=O)CC(NCCCN(C)C)C(=O)O` (stereo not given) showed a melting point of 171 to 172 °C. Work on `Cc1cc(C2=NNC(C(N)=O)Cc3cc4c(cc32)OCO4)ccc1[N+](=O)[O-]` (stereo not given) yielded a melting point of 246 to 249 °C. With `O=C1CC(=O)CC(c2ccc(Cl)c(Cl)c2)C1` the melting point was 198 to 200 °C. With `CCOC(=O)c1cc2cc(Cl)ccc2n1C` the melting point was 81.5 to 82 °C. `COC(=O)C1=C(C#N)NC(C)=C(C(=O)OCC(C)C)C1c1ccccc1C#N` (stereo not given) showed a melting point of 196 to 198 °C. Work on `CC(C)(C)OC(=O)Oc1ccc(C(C(=O)OC(c2ccccc2)c2ccccc2)N2CC(N)C2=O)cc1` (stereo not given) yielded a melting point of 120 to 122 °C. Compound `NC(=O)c1ccc(NC2CCCN(Cc3ccccc3)C2)cc1` (stereo not given) has a melting point of 158 to 160 °C. `CN1C(=O)CC[C@]2(C)c3ccc(Sc4nc(-c5ccccc5)cc5ccccc45)cc3CC[C@@H]12` showed a melting point of 183 to 189 °C. With `CCOC(=O)CCN1CCC[C@H](NCc2ccccc2OC)[C@@H]1c1ccccc1` (relative stereo) the melting point was 110 to 112 °C. In the case of `CC(Oc1cc(C(F)(F)F)cc(C(F)(F)F)c1)C(N)=O` (stereo not given), the melting point is reported as 84 to 85 °C. `CCCNS(=O)(=O)c1cccc(C)c1C#N` showed a melting point of 74 to 77 °C. In the case of `COc1ccc(CN2CCN(C3=NC4(C=CC(=O)C=C4)C(c4ccc(OC)cc4)=C3)CC2)cc1`, the melting point is reported as 142 °C. Compound `CCc1cc(=O)c2nc(OCCO[Si](c3ccccc3)(c3ccccc3)C(C)(C)C)ccc2[nH]1` has a melting point of 209 to 210 °C. `C=C(C)C(=O)Oc1ccc(C(=O)c2ccccc2)cc1` showed a melting point of 69.5 to 70.5 °C. With `CCCn1nnn(-c2ccc([N+](=O)[O-])cc2)c1=O` the melting point was 91.1 °C. With `O=C(c1ccc(Cl)cc1)c1cnc2ccc(Cl)cc2c1O` the melting point was > 260 °C. `N#Cc1cc(NC(=O)c2ccn(-c3ccc(F)cc3)c2)ccc1N1CCC(N2CCOCC2)CC1` showed a melting point of 182 to 183 °C. Compound `O=[N+]([O-])c1cccnc1NCC(O)CO` (stereo not given) has a melting point of 95.5 to 98 °C. For `COc1c(C)cnc(CSc2nc3ncccc3[nH]2)c1C`, the melting point was 186 to 188 °C. `COC1=C(c2ccccc2)C(CCCC(=O)O)OC1=O` (stereo not given) showed a melting point of 94 to 96 °C. `C=C(Br)n1ccnc1[N+](=O)[O-]` gave a melting point of 80 to 82 °C. Compound `CC(=O)N[C@@H](C)COc1cc(-c2nc3cc(OCC4CC4)ccc3o2)on1` has a melting point of 156 to 157 °C. With `Cc1cc(C)cc(C(=O)/C=C/c2nc[nH]c2C)c1` the melting point was 165 to 166 °C. `COC(=O)c1ccc(NC(=O)C(N)c2ccc3c(c2)C(C)(C)CCC3(C)C)s1` (stereo not given) showed a melting point of 110 to 112 °C. Compound `FC(F)(F)c1cccc(C(=CC2=NCCN2)c2ccc3ccccc3n2)c1` has a melting point of 76.5 °C. For `CC(C#N)=CCN1C(=O)c2ccccc2S1(=O)=O`, the melting point was 107 to 108 °C. In the case of `OCCOc1ccc2nc(S)sc2c1`, the melting point is reported as 162 to 165 °C. `CCC1=NNC(C)=C(C(=O)OC(C)C)C1c1cccc([N+](=O)[O-])c1` (stereo not given) gave a melting point of 108 °C. In the case of `CCC(Oc1ccccc1)c1nnc(N2C(=O)N(C)CC2O)s1` (stereo not given), the melting point is reported as 137 to 138 °C. For `C=CC(=O)Oc1ccc(Cl)c2c1Sc1ccccc1C2`, the melting point was 164 to 165 °C. With `CON(C)C(=O)Nc1ccc(OCc2nc(Cl)ccc2Cl)cc1` the melting point was 152 to 154 °C. Work on `Cc1nc(Nc2ccccc2)sc1C(=O)c1sc(Nc2ccccc2)nc1C` yielded a melting point of 194 to 196 °C. For `CC(C)(C)OC(=O)N1CC(O)C(N2CCC(Cc3ccc(Cl)cc3)CC2)C1` (stereo not given), the melting point was 99 to 102 °C. For `CC(C)(C)OC(=O)Nc1ccc(-c2ccccc2)cc1NC(=O)CC(=O)c1sccc1Cl`, the melting point was 165 °C. `OC(CCN1CCC(c2ccc(Cl)cc2)CC1)c1ccc(Cl)cc1` (stereo not given) gave a melting point of 152 to 154 °C. `CCCC(=O)NNC(=O)c1ccncc1` showed a melting point of 142 °C. Compound `O=C(NCc1ccccc1)C1C=Nc2ccccc2S1` (stereo not given) has a melting point of 160 to 162 °C. Work on `CCCC(CCC)NC(=O)c1ccc2oc(OC)nc2c1` yielded a melting point of 137 to 138 °C. Work on `CC1(C)C(=O)Nc2cc3[nH]c(C4=CCCC4)nc3cc21` yielded a melting point of 233 to 235 °C. Work on `CNCCn1nc(N)c2cc3cc(OC)ccc3nc21` yielded a melting point of 142 to 144 °C. `N#Cc1ccc(-c2cc3ccccc3[nH]c2=S)cc1` gave a melting point of 284 to 289 °C. In the case of `COc1cc(COC(=O)NCCN2CCOCC2)ccc1OC(C)=O`, the melting point is reported as 82 to 83 °C. `NCC1CCN(CCc2ccc(O)cc2)CC1` showed a melting point of 166 to 168 °C. In the case of `CCOc1nn(-c2ccc(C(F)(F)F)cn2)cc1CCCOc1cc(CC(=O)O)cc(OC)c1`, the melting point is reported as 125 to 126 °C. `O=C(Nc1ccc2ccc(Cl)nc2n1)C1=CCC=CC1` gave a melting point of 210 °C. For `CC(=O)NCc1cccc(Nc2nccc(-c3sc(-c4ccc(C)nc4)nc3C)n2)c1`, the melting point was 227 to 229 °C. Compound `CN1CCN(c2cc3nc(C(C)(C)C)sc3cc2N)CC1` has a melting point of 130 °C. In the case of `COc1cccc(CBr)c1CBr`, the melting point is reported as 78 to 79 °C. For `O=c1[nH]c2cc(Cl)ccc2n1CCCBr`, the melting point was 162 °C. `N#CSCC(=O)c1cccc(Br)c1` gave a melting point of 91 to 93 °C. In the case of `Cn1nc(C(=O)NCc2ccc(Cl)cc2)c(=O)c2cc(C#CCCO)ccc21`, the melting point is reported as 227 to 229 °C. Work on `Cc1cc2ncc(C(=O)O)c(N(C)S(=O)(=O)c3ccc(Oc4ccncc4)cc3)n2n1` yielded a melting point of 246 to 248 °C. `COCC(COC)(Cc1ccccc1)Cc1ccccc1` gave a melting point of 95 °C. `CCSc1sc(C#N)c(N(C)C(C)=O)c1C#N` showed a melting point of 68 °C. `Cc1ccc(C(=O)COc2ccc(Br)cc2CO)cc1` gave a melting point of 125 to 127 °C. For `COc1ccc(-c2c(SCc3ccncc3)oc3cc(OCc4ccccc4)ccc3c2=O)cc1`, the melting point was 170 °C. `C#CC(O)c1ccc(C(=O)OC)s1` (stereo not given) showed a melting point of 67 °C. In the case of `O=C(NO)C(CN1C(=O)CNC1=O)CS(=O)(=O)c1ccc(-c2ccc(Cl)cc2)cc1` (stereo not given), the melting point is reported as 150 to 156 °C. `O=C(CC1CCCCC1)Nc1c(Cl)ccc2nc(NC[C@@H](O)CO)ccc12` showed a melting point of 155 to 159 °C. `CCCCCCCCOC(=O)Oc1ccc(C(=O)O)cc1` showed a melting point of 126 °C. Compound `C=C(CC(O)C(=O)OCC)CC(NC=O)(C(=O)OCC)C(=O)OCC` (stereo not given) has a melting point of 68 °C. For `CC1=C(Cl)C(c2ccccc2)C([N+](=O)[O-])=C(C)N1` (stereo not given), the melting point was 192 °C. Compound `CC(=O)c1c(O)cccc1OCC(O)COc1ccccc1C` (stereo not given) has a melting point of 101 to 102 °C. Compound `Cc1nnc2n1-c1sc3c(c1C(c1ccccc1Cl)=NC2)CCN(C(=S)Nc1ccccc1C(F)(F)F)C3` has a melting point of 190 to 192 °C. Work on `BrCc1ccc(-c2onc3ccccc23)cc1` yielded a melting point of 146 to 147 °C. In the case of `O=C(O)c1cn(CC2CC2)c2c(F)c(F)c(F)cc2c1=O`, the melting point is reported as 223 to 255 °C. `N#Cc1cc(/C=C/C(c2cc(Cl)c(Cl)c(Cl)c2)C(F)(F)F)ccc1-n1cnc(N)n1` (stereo not given) gave a melting point of 72 to 75 °C. Work on `COc1cccc2c1CC(CC(=O)O)C1(C2)OCCO1` (stereo not given) yielded a melting point of 129 to 130 °C. Work on `Nc1cccc(-c2ccc(CCN3CCN(C(=O)c4ccccc4)CC3)cc2)n1` yielded a melting point of 125 to 127 °C. Compound `C=CC(=O)OCCCCCCCCOc1ccc(-c2ccc(OCCCCCCCCOC(=O)C=C)c(F)c2F)c(F)c1F` has a melting point of 60.5 to 61.4 °C. `CC1=Nc2cc(Cl)c(S)cc2S(=O)(=O)N1` gave a melting point of 304 to 305 °C. `O=C(O)CN1CCN2c3ccccc3Cn3cccc3C2C1` (stereo not given) showed a melting point of 249 to 250 °C. Work on `CCC(=Cc1cccc([N+](=O)[O-])c1)C(=O)Oc1ccc(OC)cc1` yielded a melting point of 65 to 66 °C. In the case of `CCC1=Nc2ccccc2CC(c2ccc(C)s2)N1C` (stereo not given), the melting point is reported as 66 °C. Compound `COc1cn([C@H](C)c2cccc3ccccc23)c(=O)o1` has a melting point of 89 to 91 °C. With `CCCCc1nc2c(N)nc3ccccc3c2n1CCCCON=C(C)C` the melting point was 115 to 117 °C. Compound `NC(=O)c1cccnc1N1CCN(CC(O)CO)CC1` (stereo not given) has a melting point of 140 to 142 °C. In the case of `Cc1nc(N2CCN(Cc3ccc(F)cc3)C2=O)sc1C(=O)NCc1ccncn1`, the melting point is reported as 175 to 176 °C. For `NS(=O)(=O)OCCOc1cccc(-n2ccnc2)c1`, the melting point was 149 to 150 °C. Work on `COc1ccc(NC(=O)c2ccccc2NS(=O)(=O)c2ccc(C)cc2)cc1Cl` yielded a melting point of 181 to 182 °C. `Cc1nn(C)c2c1c1oc(=O)c(Br)c(O)c1c(=O)n2Cc1ccc(F)cc1` showed a melting point of 262 to 264 °C. Compound `Cc1occc1C(=O)Nc1ccc(Cl)c(C2OCCO2)c1` has a melting point of 134 to 135 °C. For `O=C(NCCc1ccc(Cl)cc1)c1c(Cl)ccc2nc(N3CCC(C(=O)O)CC3)ccc12`, the melting point was 231 to 234 °C. In the case of `NS(=O)(=O)c1nc2ccc(OC(=O)Cc3ccc(Cl)cc3)cc2s1`, the melting point is reported as 206 to 208 °C. `CC(C)(C)C(NC(=O)c1ccc(Cl)cc1)Nc1c(Nc2cccnc2Cl)c(=O)c1=O` (stereo not given) showed a melting point of 259 to 261 °C. With `Nc1sc2c(c1C(=O)c1ccc3ccccc3c1)CCN(Cc1ccccc1)C2` the melting point was 174 to 177 °C. In the case of `CCOC(=O)C1CC(O)CN1C(=O)c1ccc2c(c1)OCO2` (stereo not given), the melting point is reported as 98 °C. Work on `COC(=O)COC(=O)c1ccc(OCC(=O)OC)cc1` yielded a melting point of 53 to 57 °C.
